Test results as given in patent US9957264B2 (Merck Sharp & Dohme Corp., priority 2013, dated 2018).

Key:
[1] = target: JAK1 (recombinant purified GST-tagged catalytic domain) (Homo sapiens (Human), UniProt P23458); experiment: Jak Biochemical HTRF Assay (JAK1); details: [ATP] 31.8 μM
Summary of the method: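 HTRF kinase format: compounds pre-equilibrated with recombinant GST-tagged JAK1 or JAK2 catalytic domain, then ATP started a 120 min room-temperature reaction on a common peptide substrate. Phosphopeptide detected via Eu-pY20/streptavidin-Dylight 650 after EDTA quench; percent inhibition versus log concentration fitted (4-parameter) to give IC50.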

[2] = target: JAK2 (recombinant purified GST-tagged catalytic domain) (Homo sapiens (Human), UniProt O60674); experiment: Jak Biochemical HTRF Assay (JAK2); details: [ATP] 8.5 μM
Sequence of JAK2 (recombinant purified GST-tagged catalytic domain) (O60674 849-1124): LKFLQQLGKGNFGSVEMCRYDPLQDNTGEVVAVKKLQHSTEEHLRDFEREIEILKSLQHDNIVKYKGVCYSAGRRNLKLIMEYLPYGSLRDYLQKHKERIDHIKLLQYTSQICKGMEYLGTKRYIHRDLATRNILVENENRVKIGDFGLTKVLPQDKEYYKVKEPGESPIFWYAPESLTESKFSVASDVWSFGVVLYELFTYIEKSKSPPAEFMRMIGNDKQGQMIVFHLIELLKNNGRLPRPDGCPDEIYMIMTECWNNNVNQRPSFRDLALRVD

Sequence of JAK1 (recombinant purified GST-tagged catalytic domain) (P23458 875-1153): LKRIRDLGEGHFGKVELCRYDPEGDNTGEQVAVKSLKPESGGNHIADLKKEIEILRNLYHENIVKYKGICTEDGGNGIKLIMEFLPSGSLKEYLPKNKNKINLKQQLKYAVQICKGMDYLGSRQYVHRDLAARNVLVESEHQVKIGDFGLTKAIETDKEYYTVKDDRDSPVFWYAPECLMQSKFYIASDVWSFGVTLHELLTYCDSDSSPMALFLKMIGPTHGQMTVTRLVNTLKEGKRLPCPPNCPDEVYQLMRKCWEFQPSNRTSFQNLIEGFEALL

With `Cc1cc(Nc2nn([C@]3(CC#N)CC[C@@H](C(=O)OC(C)(C)C)OC3)c3cc[nH]c(=O)c23)ccc1C(=O)N(C)CC(F)(F)F` [Example 20-15, (2S,5S)-tert-butyl 5-(cyanomethyl)-5-(3-((3-methyl-4-(methyl(2,2,2-trifluoroethyl)carbamoyl)phenyl)amino)-4-oxo-4,5-dihydro-1H-pyrazolo[4,3-c]pyridin-1-yl)tetrahydro-2H-pyran-2-carboxylate] the IC50 [1] was 0.19 nM and the IC50 [2] was 0.51 nM.
Work on `Cc1cc(Nc2nn([C@]3(CC#N)CC[C@@H](C(=O)OC(C)(C)C)OC3)c3cc[nH]c(=O)c23)ccc1C(=O)N1C[C@@H]2C[C@H]1CO2` [Example 20-16, (2S,5S)-tert-butyl 5-(3-((4-((1S,4S)-2-oxa-5-azabicyclo[2.2.1]heptane-5-carbonyl)-3-methylphenyl)amino)-4-oxo-4,5-dihydro-1H-pyrazolo[4,3-c]pyridin-1-yl)-5-(cyanomethyl)tetrahydro-2H-pyran-2-carboxylate] yielded an IC50 [1] of 0.1 nM and an IC50 [2] of 0.15 nM.
`Cc1nc2ccc(Nc3nn([C@]4(CC#N)CC[C@@H](C(=O)OC(C)(C)C)OC4)c4cc[nH]c(=O)c34)cc2s1` [Example 21-1, (2S,5S)-tert-butyl 5-(cyanomethyl)-5-(3-((2-methylbenzo[d]thiazol-6-yl)amino)-4-oxo-4,5-dihydro-1H-pyrazolo[4,3-c]pyridin-1-yl)tetrahydro-2H-pyran-2-carboxylate] gave an IC50 [1] of 0.08 nM and an IC50 [2] of 0.73 nM.
`CC1(C)C(=O)Nc2cc(Nc3nn([C@@]4(CC#N)CCCC[C@H]4F)c4cc[nH]c(=O)c34)ccc21` [Example 21-2, [(1R,2R)-1-{3-[(3,3-dimethyl-2-oxo-2,3-dihydro-1H-indol-6-yl)amino]-4-oxo-4,5-dihydro-1H-pyrazolo[4,3-c]pyridin-1-yl}-2-fluorocyclohexyl]acetonitrile] gave an IC50 [1] of 0.04 nM and an IC50 [2] of 0.04 nM.
For `CC1(C)C(=O)Nc2cc(Nc3nn([C@]4(CC#N)CCCOC4)c4cc[nH]c(=O)c34)ccc21` [Example 21-4, [(3S)-3-{3-[(3,3-dimethyl-2-oxo-2,3-dihydro-1H-indol-6-yl)amino]-4-oxo-4,5-dihydro-1H-pyrazolo[4,3-c]pyridin-1-yl}tetrahydro-2H-pyran-3-yl]acetonitrile], the IC50 [1] was 0.09 nM and the IC50 [2] was 0.19 nM.
`CC(C)(C)OC(=O)[C@@H]1CC[C@@](CC#N)(n2nc(Nc3ccnc(F)c3)c3c(=O)[nH]ccc32)CO1` [Example 21-6, (2S,5S)-tert-butyl 5-(cyanomethyl)-5-(3-((2-fluoropyridin-4-yl)amino)-4-oxo-4,5-dihydro-1H-pyrazolo[4,3-c]pyridin-1-yl)tetrahydro-2H-pyran-2-carboxylate] gave an IC50 [1] of 0.12 nM and an IC50 [2] of 2.25 nM.
`Cc1cc(Nc2nn(C3(CC#N)CCN(C(=O)OC(C)(C)C)CC3)c3cc[nH]c(=O)c23)ccc1C(=O)N1CCC(F)(F)CC1` [Example 21-11, tert-butyl 4-(cyanomethyl)-4-(3-((4-(4,4-difluoropiperidine-1-carbonyl)-3-methylphenyl)amino)-4-oxo-4,5-dihydro-1H-pyrazolo[4,3-c]pyridin-1-yl)piperidine-1-carboxylate] gave an IC50 [1] of 0.43 nM and an IC50 [2] of 0.38 nM.
`Cc1cc(Nc2nn(C3(CC#N)CCN(C(=O)OC(C)(C)C)CC3)c3cc[nH]c(=O)c23)ccc1C(=O)N1CC2CCC(C1)O2` [Example 21-12, tert-butyl-4-(3-((4-(8-oxa-3-azabicyclo[3.2.1]octane-3-carbonyl)-3-methylphenyl)amino)-4-oxo-4,5-dihydro-1H-pyrazolo[4,3-c]pyridin-1-yl)-4-(cyanomethyl)piperidine-1-carboxylate] showed an IC50 [1] of 0.26 nM and an IC50 [2] of 0.18 nM.
For `Cc1cc(Nc2nn(C3(CC#N)CCN(C(=O)OC(C)(C)C)CC3)c3cc[nH]c(=O)c23)ccc1C(=O)N1C2CCC1COC2` [Example 21-13, tert-butyl 4-(cyanomethyl)-4-{3-[(5-methyl-4-{3-oxa-8-azabicyclo[3.2.1]octan-8-ylcarbonyl}cyclohexa-1,3,5-trien-1-yl)amino]-4-oxo-5H-pyrazolo[4,3-c]pyridin-1-yl}piperidine-1-carboxylate], the IC50 [1] was 0.27 nM and the IC50 [2] was 0.2 nM.
`Cc1cc(Nc2nn(C3(CC#N)CCN(C(=O)OC(C)(C)C)CC3)c3cc[nH]c(=O)c23)ccc1C(=O)N1CCSCC1` [Example 21-14, tert-butyl-4-(cyanomethyl)-4-(3-(3-methyl-4-(thiomorpholine-4-carbonyl)phenylamino)-4-oxo-4,5-dihydropyrazolo[4,3-c]pyridin-1-yl)piperidine-1-carboxylate] gave an IC50 [1] of 0.33 nM and an IC50 [2] of 0.32 nM.
`CC(C)(C)OC(=O)N1CCC(CC#N)(n2nc(Nc3ccc4c(c3)CN(C3CCN(CC(F)(F)F)CC3)S4(=O)=O)c3c(=O)[nH]ccc32)CC1` [Example 21-15, tert-butyl-4-(cyanomethyl)-4-(3-((1,1-dioxido-2-(1-(2,2,2-trifluoroethyl)piperidin-4-yl)-2,3-dihydrobenzo[d]isothiazol-5-yl)amino)-4-oxo-4,5-dihydro-1H-pyrazolo[4,3-c]pyridin-1-yl)piperidine-1-carboxylate] showed an IC50 [1] of 0.77 nM and an IC50 [2] of 0.65 nM.
Compound `Cc1cc(Nc2nn(C3(CC#N)CCN(C(=O)OC(C)(C)C)CC3)c3cc[nH]c(=O)c23)ccc1C(=O)N1CCOCC1` [Example 21-20, tert-butyl 4-(cyanomethyl)-4-(3-(3-methyl-4-(morpholine-4-carbonyl)phenylamino)-4-oxo-4,5-dihydropyrazolo[4,3-c]pyridin-1-yl)piperidine-1-carboxylate] has an IC50 [1] of 0.18 nM and an IC50 [2] of 0.17 nM.
Work on `CS(=O)(=O)NC(=O)[C@@H]1CC[C@@](CC#N)(n2nc(Nc3ccc(Cl)cc3)c3c(=O)[nH]ccc32)CO1` [Example 22, (2S,5S)-5-(3-((4-chlorophenyl)amino)-4-oxo-4,5-dihydro-1H-pyrazolo[4,3-c]pyridin-1-yl)-5-(cyanomethyl)-N-(methylsulfonyl)tetrahydro-2H-pyran-2-carboxamide] yielded an IC50 [1] of 3.78 nM and an IC50 [2] of 23.3 nM.
`CN(C)C(=O)[C@@H]1CC[C@@](CC#N)(n2nc(Nc3ccc(Cl)cc3)c3c(=O)[nH]ccc32)CO1` [Example 23, (2S,5S)-5-(3-((4-chlorophenyl)amino)-4-oxo-4,5-dihydro-1H-pyrazolo[4,3-c]pyridin-1-yl)-5-(cyanomethyl)-N,N-dimethyltetrahydro-2H-pyran-2-carboxamide] showed an IC50 [1] of 0.23 nM and an IC50 [2] of 2.5 nM.
In the case of `CC(C)(O)[C@@H]1CC[C@@](CC#N)(n2nc(Nc3ccc(Cl)cc3)c3c(=O)[nH]ccc32)CO1` [Example 24, 2-((3S,6S)-3-(3-((4-chlorophenyl)amino)-4-oxo-4,5-dihydro-1H-pyrazolo[4,3-c]pyridin-1-yl)-6-(2-hydroxypropan-2-yl)tetrahydro-2H-pyran-3-yl)acetonitrile], the IC50 [1] is reported as 0.34 nM and the IC50 [2] is reported as 1.13 nM.
